{"source": "patent US20110142884A1", "about": "“Materials and Methods for Making Improved Micelle Compositions” (The Board of Trustees of the University of Illinois, priority 2002, published 2011)", "key": {"[1]": {"test_system": "second order arterioles of the hamster cheek pouch microcirculation", "conditions": "Séjourné et al. 1997; cited from earlier work"}, "[2]": {"test_system": "second order arterioles of the hamster cheek pouch microcirculation", "experiment": "Hamster cheek pouch microcirculation, arteriolar diameter during suffusion", "assay_type": "in vivo", "experimental": "According to this example, the vasorelaxant effects of VIP in a SSM were determined according to the following method. Specifically, adult male golden Syrian hamsters were purchased from Sasco (Omaha, Nebr.). Adult male hamsters with spontaneous hypertension and their normotensive controls were purchased from the Canadian Hybrid Farms (Halls Harbour, NS, Canada). Hypertensive animals have been identified after cross-breeding of hamsters with hereditary cardiomyopathy and normal golden Syrian hamsters. These albino animals have previously been used in our laboratory (Rubinstein et al., Biochem. Biophys. Res. Commun. 183:1117-1123 (1992); Artwohl et al., FASEB J. 10:A629 (1996)). Animals were anesthetized with pentobarbital sodium (6 mg/100 g body weight, i.p.). A tracheotomy was performed to facilitate spontaneous breathing. A femoral vein was cannulated to inject supplemental anesthesia during the experiment (2-4 mg/100 g body weight/h). Body temperature was maintained constant (37-38° C.) and monitored via heating pad and a feed back controller throughout the experiment.\nThe bioactivity of the VIP in SSM by diffusing it in situ was determined by visualization of the microcirculation of the hamster cheek pouch. The microcirculation of the cheek pouch was visualized locally by a method previously developed in our laboratory (Suzuki et al., Life Sci. 57:1451-1457 (1995); Suzuki et al., Am. J. Physiol. 271:R393-R397 (1996); and Suzuki et al., Am. J. Physiol. 271:H282-H287 (1996)). Briefly, the left cheek pouch was spread over a small plastic baseplate, and an incision was made in the outer skin to expose the cheek pouch membrane. The connective avascular tissue layer was removed, and a plastic chamber was placed over the baseplate and secured in place by suturing the skin around the upper chamber. This forms a triple-layered complex: the baseplate, the exposed cheek pouch membrane, and the upper chamber. After these initial procedures, the hamster is transferred to a heated microscope stage. The chamber was connected to a reservoir containing warmed bicarbonate buffer (37-38° C.) that allowed continuous suffusion of the cheek pouch. The buffer was bubbled continuously with 95% N2-5% CO2 (pH 7.4). […]\nThe cheek pouch microcirculation was epi-illuminated with a 100-W mercury light source and viewed through a microscope (Nikon, Tokyo, Japan) at a magnification of ×40. […] The inner-wall diameter of second order arterioles ([…]), which modulated vascular resistance in the cheek pouch, (Raud, Acta Physiol. Scand. (Suppl.) 578:1-58 (1989); Suzuki et al., Life Sci. 57:1451-1457 (1995); Suzuki et al., Am. J. Physiol. 271:R393-R397 (1996)) was measured from the video display of the microscope image using a videomicrometer (VIA 100; Boeckeler Instruments, Tucson, Ariz.). […]"}, "[3]": {"experiment": "Circular dichroism (CD) spectral analysis of peptide conformation, % helicity", "assay_type": "physicochemical", "conditions": "room temperature", "experimental": "According to this example, circular dichroism (CD) experiments were performed to determine the conformation changes of VIP in phospholipid micelles, pH and temperature changes, and in aqueous solutions. CD spectra were recorded on a JASCO J-700 spectropolarimeter using a fused quartz cell of 1 cm pathlength. Spectra in 0.15 N saline (pH 6.8) and 5 mM Hepes buffer (pH 7.4) were measured at a peptide concentration of 4 μM and at a lipid concentration of 1 mM. The effects of CaM, pH (6.8 or 7.4) and temperature (25° C. or 37° C.) on VIP conformation were also studied. The conformation of VIP fragments was likewise studied. All measurements were carried out at room temperature (˜25° C.) unless otherwise noted. A bandwidth of 1.0 nm and a step resolution of 0.5 nm were used to collect an average of 9 accumulations/sample at the […] (200-260 nm wavelength). The peptide spectra shown have the background buffer scans, and empty vesicle scans subtracted and were smoothed using the noise reduction function. The temperature during spectral analysis was maintained by using a circulating water bath attached to a jacket surrounding the fused quartz CD cell. The percent helical characterization of VIP was determined by a method of Haghjoo et al., Peptide Research 9 (6):327-331 (1996): % helicity=[−(θ208+4000)/29 000]*100 and are reported in table 1.\nAccording to the example, CD was used to determine the conformation of VIP in saline, Hepes buffer and phospholipid micelles at room temperature and at 37° C. The CD spectra analysis was performed after 13 μg of human VIP incubated with 1 ml PEG-DSPE (1 μmol) micelles for 30 min at room temperature as determined by preliminary studies. A bandwidth of 1.0 nm and a step resolution of 0.5 nm were used to collect an average of 9 accumulations/sample at near UV range (200-260 nm). The temperature was maintained during spectral analysis by a circulating water bath attached to a jacket surrounding the fused quartz CD cell. The evaluation of VIP molecule conformation in SSM by using circular dichroism was successful because the distortion caused by spherical particles was eliminate due to the small size and univesicular structure of the SSM. […] The phospholipid micelles were ideal in our study of VIP conformation since it provided a hydrophobic core similar to the phospholipid bilayer of the SSL. Moreover, both the negative charge, and the hydrophilic layer provided by the PEG mimic the conditions of our SSL and make it possible to infer the VIP conformational results.\nAccording to this example, the method of example 4 was repeated to determine the conformation of VIP in saline and phospholipid micelles plus calmodulin (CaM). CD spectra measurements were performed after 13 μg/ml of VIP was incubated with 1.0 μmol/ml of phospholipid micelles for 30 min followed by 10^−10 M CaM incubated with VIP in phospholipid micelles for 2 h at 4° C. (conjugation paper). A bandwidth of 1.0 nm and a step resolution of 0.5 nm were used to collect the average of 9 accumulations/sample at near UV range (200-260 nm).\nAccording to this example the method of example 4 was repeated to determine the conformation of VIP fragments in saline and phospholipid micelles. CD spectra measurements were performed after incubation of VIP fragments with phospholipid micelles, at a molar concentration equivalent to VIP (i.e. 9 μg/ml for VIP10-28 fragment and 6 μg/ml for VIP1-12 fragment), for 30 min. A bandwidth of 1.0 nm and a step resolution of 0.5 nm were used to collect the average of 9 accumulations/sample at near UV range (200-260 nm). Specifically, CD spectra of human VIP fragment (1-12) and (10-28) in the presence of phospholipid micelles are shown in FIG. 5. […] These effects correlate well with the % helicity of VIP fragments determined in saline and in the presence of phospholipids (Table 1). […]"}, "physchem": {"experiment": "physchem", "conditions": "pH 7.4, aqueous with cosolvent or surfactant or cyclodextrin, thermodynamic from solid, paclitaxel solubilized by SSMM", "experimental": "Solubilization potential of both micelle compositions for a model drug was measured by HPLC after separation of the unincorporated drug.\nExcess drug was removed by centrifugation and the supernatant was analyzed by HPLC. […] HPLC eluent was measured with adsorption at 254 nm.\nAccording to this example, micelle compositions of the invention were further characterized. Particularly, the physiochemical properties of sterically stabilized micelles prepared with DSPE conjugated to molecular weight 2000, 3000, and 5000 PEG were analyzed. The critical micelle concentration (CMC) of phospholipids was determined at pH 7.4 and 25° C. using a water-insoluble fluorescent probe (1,6-diphenyl-1,3,5-hexatriene). Micellar size was determined by quasi-elastic light scattering.\nThe solvent was then removed by vacuum rotary evaporation under a stream of argon to form a dry film. This dry film was further dried under vacuum overnight to remove any traces of remaining solvent. The dried film was rehydrated with isotonic 0.01M HEPES buffer, pH 7.4. The solution was then flushed with argon, sealed and equilibrated for 12 h at room temperature. The unsolubilized excess paclitaxel was removed by centrifugation at 13,000 g for 5 min to obtain a clear dispersion.\nThe solubilization potentials of SSMM and SSM for paclitaxel were determined by RP-HPLC. The clear aqueous dispersion was diluted with methanol. 20 μl of each sample was injected at least three times into a μBondapak C-18 column, 3.9 mm×30 cm (Waters, Milford, Mass.) equipped with a C18 column guard. The column was eluted with acetonitrile/water (60:40) at 1.0 ml/min (Waters 600). Detection was by UV absorption measurement at 227 nm (Waters 490). Peak areas were calculated by interfacing the detector to an electronic integrator (Hewlett Packard). The drug concentration was calculated from standard curves."}, "[4]": {"test_system": "human breast cancer cells (MCF-7)", "experiment": "In vitro cytotoxic activity, sulforhodamine B", "conditions": "three days incubation", "procedure": "The cytotoxic activity of paclitaxel in SSMM, SSM and dimethyl sulfoxide (10% DMSO) was determined against human breast cancer cells (MCF-7; ATCC # HTB-22). The cell line was maintained in RPMI 1640 medium containing 10% fetal bovine serum and 1.0% antibiotics (penicillin and streptomycin), in a 5% carbon dioxide humidified atmosphere at 37° C. Optimum solutions of paclitaxel-SSM and paclitaxel-SSMM chosen from the solubilization studies were used as the test solutions. A 10% dimethyl sulfoxide (DMSO) solution of paclitaxel was also tested as a control. […]\nBriefly, samples were prepared as described earlier and serial dilutions were made to obtain paclitaxel concentrations ranging from 0.0013 to 4 μg/ml using the respective solvent that is either HEPES buffer or 10% DMSO. […] Each sample was evaluated in triplicate. […] The optical density was then read at 515 nm. The optical density readings obtained for the solvent controls were used to define 100% growth after correcting for the value obtained for the zero day control. These values were then expressed as a % survival and ED50 values calculated using non-linear regression analysis (percent survival versus concentration).\nAll the data are expressed as means±standard deviation (SD). […] ED50 values were calculated for each formulation and compared statistically using one-way analysis of variance. […]"}}, "note": "No end group written: not given here.", "data": [{"compound": "VIP10-28: VIP fragment 10-28, a selective VIP receptor antagonist (YTRLRKQMAVKKYLNSILN; ends and bridges not checked; UniProt P01282 134-152, looked up, fragment)", "values": [{"measurement": "effect on VIP in SSL response", "setting": "[1]", "result": "attenuated"}, {"measurement": "effect on native VIP response", "setting": "[1]", "result": "completely abolished"}, {"measurement": "effect on secretin- and secretin in SSM-induced vasodilation", "setting": "[2]; VIP10-28 (50 nmol) suffused 30 min before and during secretin (5 nmol)", "result": "abrogated"}, {"measurement": "effects on arteriolar diameter", "setting": "[2]; suffusion of VIP10-28 alone (50 nmol)", "result": "no significant effects"}, {"measurement": "Conformation from CD spectrum in the presence of phospholipid micelles (SSM)", "setting": "[3]; phospholipid micelles (SSM)", "result": "predominantly α-helix structure"}, {"measurement": "% Helicity (in the presence of) Phospholipids", "setting": "[3]; phospholipids", "result": 18, "unit": "%"}, {"measurement": "% Helicity (in the presence of) Saline", "setting": "[3]; saline", "result": 3, "unit": "%"}, {"measurement": "Conformation from CD spectrum in saline", "setting": "[3]; saline", "result": "primarily random coil conformation"}]}, {"compound": "CC(=O)O[C@H]1C(=O)[C@@]2(C)[C@H]([C@H](OC(=O)c3ccccc3)[C@]3(O)C[C@H](OC(=O)[C@H](O)[C@@H](NC(=O)c4ccccc4)c4ccccc4)C(C)=C1C3(C)C)[C@]1(OC(C)=O)CO[C@@H]1C[C@@H]2O", "note": "[paclitaxel]", "values": [{"measurement": "solubility at 12 h", "setting": "physchem", "result": "1320 ± 48", "unit": "µg/mL"}, {"measurement": "cytotoxic activity against MCF-7 cells", "setting": "[4]", "result": "comparable cytotoxic activities"}]}]}
